Measured values from patent US20050288307A1, “Anti-viral compounds” (priority 2002, published 2005).
Where two headings read alike, the source gives them in different places.

Legend:
[1] = target: T1, CDK2/Cyclin E (Homo sapiens, UniProt P24941); experiment: CDK2/cyclin E kinase assay (GST-Rb phosphorylation); type: biochemical;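 also: enzyme source: His-tagged CDK2/cyclin E complex co-expressed recombinantly in Sf9 insect cells using baculovirus constructs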
T1 construct: His; made in house; host or cells: Sf9 insect cells (baculovirus)
Protocol: (§2) His-tagged CDK2/Cyclin E and CDK1/Cyclin B may be co-expressed and PKCα singularly expressed in Sf 9 insect cells infected with the appropriate baculovirus constructs. The cells are harvested two days after infection by low speed centrifugation and the proteins purified from the insect cell pellets by Metal-chelate chromatography. Briefly, the insect cell pellet is lysed in Buffer A (10 mM Tris-HCl, pH 8.0, 150 mM NaCl, 0.02% NP40 and 5 mM β-marcaptoethanol, 1 mM NaF. 1 mM Na3VO4 and Protease Inhibitors Coctail (Sigma) containing AEBSF, pepstatin A, E 64, bestatin, leupeptin) by sonication. The soluble fraction is cleared by centrifugation and loaded onto Ni-NTA-Agarose (Quiagen). Non bound proteins were washed off with 300 mM NaCl, 5-15 mM Imidazole in Buffer A and the bound proteins eluted with 250 mM Imidazole in Buffer A. The purified proteins are extensively dialyzed against Storage buffer (20 mM HEPES pH 7.4, 50 mM NaCl, 2 mM DTT, 1 mM EDTA, 1 mM EGTA, 0.02% NP40, 10% v/v Glycerol) aliquoted and stored at −70° C.

[2] = target: CDK2/cyclin A (Homo sapiens, UniProt P24941); experiment: CDK2/cyclin A kinase assay; type: biochemical;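 also: Read-out is incorporated radioactivity retained on P81 filter plates and quantified by scintillation counting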
Protocol: Reactions were stopped on ice, followed by filtration through p81 filterplates (Whatman Polyfiltronics, Kent, UK). After washing 3 times with 75 mM orthophosphoric acid, plates were dried, scintillant added and incorporated radioactivity measured in a scintillation counter (TopCount, Packard Instruments, Pangboume, Berks, UK).

[3] = target: CDK4/Cyclin D1 (Homo sapiens, UniProt P11802); experiment: CDK4/cyclin D1 kinase assay (GST-Rb phosphorylation); type: biochemical
Chain of CDK4/Cyclin D1 (P11802 whole entry, species assumed): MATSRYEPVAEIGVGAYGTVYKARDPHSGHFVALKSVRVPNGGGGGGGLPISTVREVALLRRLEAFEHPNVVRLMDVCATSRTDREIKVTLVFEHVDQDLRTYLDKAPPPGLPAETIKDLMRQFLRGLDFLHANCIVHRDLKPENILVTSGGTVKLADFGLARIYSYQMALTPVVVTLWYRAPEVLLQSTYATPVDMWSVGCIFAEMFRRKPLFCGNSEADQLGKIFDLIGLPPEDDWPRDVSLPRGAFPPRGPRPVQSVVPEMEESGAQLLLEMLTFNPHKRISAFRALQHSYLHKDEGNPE
Chain of CDK4/Cyclin D1 (P24385 whole entry partner, species assumed): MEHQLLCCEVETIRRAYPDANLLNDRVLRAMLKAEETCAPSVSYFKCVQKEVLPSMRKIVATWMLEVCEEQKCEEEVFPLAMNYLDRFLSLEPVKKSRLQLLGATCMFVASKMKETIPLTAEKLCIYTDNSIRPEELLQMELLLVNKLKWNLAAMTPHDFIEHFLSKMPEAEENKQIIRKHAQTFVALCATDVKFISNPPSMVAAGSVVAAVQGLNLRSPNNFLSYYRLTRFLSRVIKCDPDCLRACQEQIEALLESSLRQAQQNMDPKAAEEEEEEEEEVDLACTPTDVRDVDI

[4] = target: CDK7/cyclin H (Homo sapiens, UniProt P50613); experiment: CDK7 assay (CTD peptide substrate); type: biochemical
Chain of CDK7/cyclin H (P50613 whole entry): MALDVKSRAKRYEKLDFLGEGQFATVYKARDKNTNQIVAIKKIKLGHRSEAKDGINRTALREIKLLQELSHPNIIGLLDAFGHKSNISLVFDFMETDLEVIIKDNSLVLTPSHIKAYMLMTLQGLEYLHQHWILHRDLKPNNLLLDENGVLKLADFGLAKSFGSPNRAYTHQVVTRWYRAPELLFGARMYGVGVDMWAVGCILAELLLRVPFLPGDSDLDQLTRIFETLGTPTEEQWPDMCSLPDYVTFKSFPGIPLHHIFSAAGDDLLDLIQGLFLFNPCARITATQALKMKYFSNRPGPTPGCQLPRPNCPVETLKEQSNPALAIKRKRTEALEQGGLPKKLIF
Chain of CDK7/cyclin H (P51946 whole entry partner): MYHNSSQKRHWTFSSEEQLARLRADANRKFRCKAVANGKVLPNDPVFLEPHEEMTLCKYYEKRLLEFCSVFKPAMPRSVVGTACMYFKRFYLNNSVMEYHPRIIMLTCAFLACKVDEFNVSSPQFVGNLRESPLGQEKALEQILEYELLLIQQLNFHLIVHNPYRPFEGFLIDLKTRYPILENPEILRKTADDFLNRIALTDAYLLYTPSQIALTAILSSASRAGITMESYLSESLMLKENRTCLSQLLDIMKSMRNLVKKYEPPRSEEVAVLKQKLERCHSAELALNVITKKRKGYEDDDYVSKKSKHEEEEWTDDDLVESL
Protocol: (§1) CTD peptide substrate (biotinyl-Ahx-(Tyr-Ser-Pro-Thr-Ser-Pro-Ser)4-NH2; 1-2 mg/mL) and recombinant human CDK7/cyclin H, CDK9/cyclin T1, or CDK9/cyclin K (0.5-2 μg) were incubated for 45 min at 30° C. in the presence of varying amounts of test compound in 20 mM MOPS pH 7.2, 25 mM β-glycerophosphate, 5 mM EGTA, 1 mM DTT, 1 mM sodium vanadate, 15 mM MgCl2, and 100 μM ATP (containing a trace amount of ^32PγATP) in a total volume of 25 μL in a 96-well microtiter plate. The reaction was stopped by placing the plate on ice for 2 min. Avidin (50 μg) was added to each well, and the plate was incubated at room temp for 30 min. The samples were transferred to a 96-well P81 filter plate, and washed (4×200 μL per well) with 75 mM phosphoric acid. Microscint 40 scintillation liquid (50 μL) was added to each well, and the amount of ^32P incorporation for each sample was measured using a Packard Topcount microplate scintillation counter.

[5] = target: CDK9/cyclin T1 (Homo sapiens, UniProt P50750); experiment: CDK9 assay (CTD peptide substrate); type: biochemical
Chain of CDK9/cyclin T1 (P50750 whole entry): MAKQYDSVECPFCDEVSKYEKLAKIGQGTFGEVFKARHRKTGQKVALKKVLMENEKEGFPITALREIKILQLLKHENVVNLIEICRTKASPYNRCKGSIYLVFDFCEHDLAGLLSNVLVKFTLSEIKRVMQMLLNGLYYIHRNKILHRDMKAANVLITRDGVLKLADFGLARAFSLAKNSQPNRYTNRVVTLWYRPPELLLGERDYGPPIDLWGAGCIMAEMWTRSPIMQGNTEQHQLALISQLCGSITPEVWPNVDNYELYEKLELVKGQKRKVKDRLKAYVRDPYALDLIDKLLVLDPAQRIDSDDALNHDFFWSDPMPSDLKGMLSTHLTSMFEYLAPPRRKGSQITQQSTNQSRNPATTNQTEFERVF
Chain of CDK9/cyclin T1 (O60563 whole entry partner): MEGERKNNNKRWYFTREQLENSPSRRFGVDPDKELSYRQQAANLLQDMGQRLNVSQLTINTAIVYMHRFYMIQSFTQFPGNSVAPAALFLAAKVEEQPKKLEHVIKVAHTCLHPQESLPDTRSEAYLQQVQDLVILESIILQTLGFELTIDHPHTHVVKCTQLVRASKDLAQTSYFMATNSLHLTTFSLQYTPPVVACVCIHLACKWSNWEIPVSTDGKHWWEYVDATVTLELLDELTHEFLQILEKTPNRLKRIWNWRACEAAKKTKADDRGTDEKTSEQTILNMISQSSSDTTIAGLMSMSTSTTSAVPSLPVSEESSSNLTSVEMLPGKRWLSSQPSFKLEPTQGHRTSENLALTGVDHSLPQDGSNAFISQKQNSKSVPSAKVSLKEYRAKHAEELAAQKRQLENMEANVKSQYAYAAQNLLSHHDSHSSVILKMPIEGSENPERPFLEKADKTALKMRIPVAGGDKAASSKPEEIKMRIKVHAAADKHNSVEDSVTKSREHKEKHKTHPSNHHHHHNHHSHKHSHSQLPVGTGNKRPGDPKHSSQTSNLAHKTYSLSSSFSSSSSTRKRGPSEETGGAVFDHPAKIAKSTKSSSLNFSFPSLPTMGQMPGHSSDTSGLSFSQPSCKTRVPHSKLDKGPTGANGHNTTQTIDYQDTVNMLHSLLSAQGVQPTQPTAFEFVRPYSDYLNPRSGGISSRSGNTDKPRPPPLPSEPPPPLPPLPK
Protocol: as §1

[6] = target: CDK1/Cyclin B (Homo sapiens, UniProt P06493); experiment: CDK1/cyclin B kinase assay (GST-Rb phosphorylation);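 also: Enzyme: His-tagged CDK1/Cyclin B co-expressed in baculovirus-infected Sf9 insect cells, purified via metal-chelate chromatography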
Chain of CDK1/Cyclin B (P06493 whole entry, species assumed): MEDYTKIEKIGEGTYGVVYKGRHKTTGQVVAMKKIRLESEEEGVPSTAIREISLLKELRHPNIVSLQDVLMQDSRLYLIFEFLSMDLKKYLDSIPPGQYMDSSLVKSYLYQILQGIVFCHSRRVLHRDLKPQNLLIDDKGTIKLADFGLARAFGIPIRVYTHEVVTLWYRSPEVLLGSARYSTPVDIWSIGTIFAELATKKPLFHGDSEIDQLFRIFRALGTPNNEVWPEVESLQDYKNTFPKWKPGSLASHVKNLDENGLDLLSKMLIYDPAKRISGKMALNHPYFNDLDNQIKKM
Chain of CDK1/Cyclin B (P14635 whole entry partner, species assumed): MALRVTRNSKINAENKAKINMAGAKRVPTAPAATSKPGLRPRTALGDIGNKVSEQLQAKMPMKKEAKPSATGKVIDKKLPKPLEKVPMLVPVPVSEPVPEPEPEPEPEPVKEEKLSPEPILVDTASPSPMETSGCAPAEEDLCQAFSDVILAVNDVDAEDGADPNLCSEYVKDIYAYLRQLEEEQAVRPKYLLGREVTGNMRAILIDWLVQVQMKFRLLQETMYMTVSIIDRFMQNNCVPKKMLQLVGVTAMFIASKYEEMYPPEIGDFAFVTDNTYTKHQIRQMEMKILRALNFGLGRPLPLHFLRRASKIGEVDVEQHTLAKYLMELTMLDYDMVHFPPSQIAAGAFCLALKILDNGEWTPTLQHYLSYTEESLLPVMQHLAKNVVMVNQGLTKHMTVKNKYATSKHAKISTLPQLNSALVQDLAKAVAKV
Protocol: as §2

[7] = system: HIV-1RoJo/PBMC; experiment: Anti-HIV efficacy in fresh human PBMCs, strain RoJo; type: cell-based; conditions: HIV-1RoJo/PBMC
Protocol: Fresh PBMCs, seronegative for HIV and HBV, were isolated from screened donors (Interstate Blood Bank, Inc. Memphis, Tenn.). Cells were pelleted/washed 2-3 times by low speed centrifugation and re-suspension in PBS to remove contaminating platelets. […] Banded PBMCs were gently aspirated from the resulting interface and subsequently washed with PBS by low speed centrifugation. […] The cells were allowed to incubate at 37° C. […] IL-2 is included in the culture medium to maintain the cell division initiated by the PHA mitogenic stimulation. PBMCs were maintained in this with bi-weekly medium changes until used in the assay protocol. Cells were kept in culture for a maximum of two weeks before being deemed too old for use in assays and discarded. Monocytes were depleted from the culture as the result of adherence to the tissue culture flask.
Tritiated thymidine triphosphate (^3H-TTP, 80 Ci/mmol, NEN) was received in 1:1 dH2O:Ethanol at 1 mCi/mL. Poly rA:oligo dT template:primer (Pharmacia) was prepared as a stock solution, followed by aliquoting and storage at −20° C. The RT reaction buffer was prepared fresh on a daily basis. The final reaction mixture was prepared by combining ^3H-TTP, dH2O, poly rA:oligo dT stock and reaction buffer. This reaction mixture was placed in a round bottom microtiter plate and supernatant containing virus was added and mixed. The plate was incubated at 37° C. for 60 minutes. Following incubation, the reaction volume was spotted onto DE81 filter-mats (Wallac), in a sodium phosphate buffer or 2×SSC (Life Technologies). Next they were washed in distilled water, in 70% ethanol, and then dried. Incorporated radioactivity (counts per minute, CPM) was quantified using standard liquid scintillation techniques.

[8] = system: HIV-1; experiment: Anti-viral cell-based assays; conditions: result in words
[9] = Compound cytotoxicity in PBMC assay plates (MTS cell viability); conditions: human, TC50 (concentration decreasing cell viability by 50%)
[10] = Table 3, read-out: Average IC50 CDK2 cyclin E1
[11] = Table 3, read-out: Average IC50 CDK2 cyclin A2
[12] = Table 3, read-out: Average IC50 CDK4 cyclin D1
[13] = Table 3, read-out: Average IC50 CDK7 cyclin H
[14] = Table 3, read-out: Average IC50 CDK9 cyclin T1
[15] = Table 4, read-out: Kinase Inhibition IC50 CDK2-cyclin E
[16] = Table 4, read-out: Kinase Inhibition IC50 CDK2-cyclin A
[17] = Table 4, read-out: Kinase Inhibition IC50 CDK4-cyclin D1
[18] = Table 4, read-out: Kinase Inhibition IC50 CDK7-cyclin H
[19] = Table 4, read-out: Kinase Inhibition IC50 CDK9-cyclin T1

| Compound | IC50 [1, 10] | IC50 [2, 11] | IC50 [3, 12] | IC50 [4, 13] | IC50 [5, 14] | IC50 [6] | IC50 [1, 15] | IC50 [2, 16] | also measured |
| --- | --- | --- | --- | --- | --- | --- | --- | --- | --- |
| Cc1nc(C)c(-c2ccnc(Nc3cccc(C(F)(F)F)c3)n2)s1 [Compound 13, [4-(2,4-Dimethyl-thiazol-5-yl)-pyrimidin-2-yl]-(3-trifluoromethyl-phenyl)-amine] | 22000 nM | > 100000 nM | > 100000 nM | > 100000 nM | 85000 nM | > 100000 nM | – | – | – |
| Cc1nc(C)c(-c2ccnc(Nc3cccc(N)c3)n2)s1 [Compound 34, N-[4-(2,4-Dimethyl-thiazol-5-yl)-pyrimidin-2-yl]-benzene-1,3-diamine] | 530 nM | 530 nM | 1700 nM | 5200 nM | 410 nM | 1500 nM | – | – | – |
| CNc1nc(C)c(-c2ccnc(Nc3ccc(F)cc3)n2)s1 [Compound 47, (4-Fluoro-phenyl)-[4-(4-methyl-2-methylamino-thiazol-5-yl)-pyrimidin-2-yl]-amine] | 37 nM | – | – | – | 82 nM | – | – | – | TI (therapeutic index: TC50/IC50) [7]: 34; IC50 ([7]; Human immunodeficiency virus 1, read-out: IC50 (concentration inhibiting virus replication by 50%)): 200 nM; IC90 ([7]; Human immunodeficiency virus 1, read-out: IC90 (concentration inhibiting virus replication by 90%)): 1200 nM; anti-viral effectiveness as demonstrated by cell-based assays [8]: particularly effective anti-viral agents; CC50 at 7 days ([9]; HIV-1RoJo/PBMC): 6800 nM |
| CNc1nc(C)c(-c2ccnc(Nc3cccc(C(F)(F)F)c3)n2)s1 [Compound 75, [4-(4-Methyl-2-methylamino-thiazol-5-yl)-pyrimidin-2-yl]-(3-trifluoromethyl-phenyl)-amine] | 770 nM | > 100000 nM | > 100000 nM | 19000 nM | 8300 nM | > 100000 nM | – | – | – |
| Cc1nc(C)c(-c2ccnc(Nc3ccc(N(C)C)cc3)n2)s1 [Compound 103, N,N-Dimethyl-N′-[4-(2,4-dimethyl-thiazol-5-yl)-pyrimidin-2-yl]-benzene-1,4-diamine] | – | – | – | 11000 nM | 1800 nM | 7300 nM | – | – | anti-viral effectiveness as demonstrated by cell-based assays [8]: particularly effective anti-viral agents; CC50 at 7 days ([9]; HIV-1RoJo/PBMC): > 100000 nM; CC50 at 7 days ([9]; HIV-1WeJo/PBMC): 800 nM |
| Cc1nc(N)sc1-c1ccnc(Nc2ccc(CCO)cc2)n1 [Compound 118, 2-{4-[4-(2-Amino-4-methyl-thiazol-5-yl)-pyrimidin-2-ylamino]-phenyl}-ethanol] | 390 nM | 420 nM | 820 nM | 2800 nM | 800 nM | 1800 nM | – | – | – |
| CCNc1nc(C)c(-c2ccnc(Nc3cccc([N+](=O)[O-])c3)n2)s1 [Compound 133, [4-(2-Ethylamino-4-methyl-thiazol-5-yl)-pyrimidin-2-yl]-(3-nitro-phenyl)-amine] | 88 nM | 4200 nM | 4700 nM | 390 nM | 210 nM | > 100000 nM | – | – | – |
| Cc1nc(N(C)C)sc1-c1ccnc(Nc2cccc([N+](=O)[O-])c2)n1 [Compound 140, [4-(2-Dimethylamino-4-methyl-thiazol-5-yl)-pyrimidin-2-yl]-(3-nitro-phenyl)-amine] | 480 nM | 1800 nM | 105000 nM | > 100000 nM | 7100 nM | 49000 nM | – | – | – |
| Cc1nc(C)c(-c2ccnc(Nc3ccccc3)n2)s1 [Compound 150, [4-(2,4-Dimethyl-thiazol-5-yl)-pyrimidin-2-yl]-phenyl-amine] | 160 nM | 410 nM | 4900 nM | 11000 nM | – | 1500 nM | – | – | – |
| Cc1c(-c2ccnc(Nc3cccc([N+](=O)[O-])c3)n2)sc(=O)n1C [Compound 153, 3,4-Dimethyl-5-[2-(3-nitro-phenylamino)-pyrimidin-4-yl]-3H-thiazol-2-one] | – | – | – | – | – | 3000 nM | 610 nM | 16 nM | IC50 [3, 17]: 560 nM; IC50 [4, 18]: 120 nM; IC50 [5, 19]: 2.2 nM |
| Cc1c(-c2ccnc(Nc3ccc(Cl)cc3)n2)sc(=O)n1C [Compound 156, 5-[2-(4-Chloro-phenylamino)-pyrimidin-4-yl]-3,4-dimethyl-3H-thiazol-2-one] | – | – | – | – | – | 1400 nM | – | 270 nM | IC50 [4, 18]: 8700 nM |
| Cc1cc(Nc2nccc(-c3sc(=O)n(C)c3C)n2)ccc1Cl [Compound 160, 5-[2-(4-Chloro-3-methyl-phenylamino)-pyrimidin-4-yl]-3,4-dimethyl-3H-thiazol-2-one] | – | – | – | – | – | 1800 nM | 1700 nM | 1200 nM | IC50 [3, 17]: 18000 nM; IC50 [5, 19]: 150 nM |
| Cc1ccc(Nc2nccc(-c3sc(=O)n(C)c3C)n2)cc1I [Compound 161, 5-[2-(3-Iodo-4-methyl-phenylamino)-pyrimidin-4-yl]-3,4-dimethyl-3H-thiazol-2-one] | – | – | – | – | – | 2100 nM | 3200 nM | 710 nM | IC50 [3, 17]: 4000 nM; IC50 [5, 19]: 110 nM |

The next lines start with results.

| IC50 [1, 10] | IC50 [2, 11] | IC50 [3, 12] | IC50 [4, 13] | IC50 [5, 14] | IC50 [6] | IC50 [1, 15] | IC50 [2, 16] | Compound | also measured |
| --- | --- | --- | --- | --- | --- | --- | --- | --- | --- |
| 1100 nM | 670 nM | 4100 nM | 4900 nM | – | 470 nM | – | – | COc1ccc(Nc2nccc(-c3sc(C)nc3C)n2)cc1N(C)C [Compound 130, N^1-[4-(2,4-Dimethyl-thiazol-5-yl)-pyrimidin-2-yl]-4-methoxy-N^3,N^3-dimethyl-benzene-1,3-diamine] | – |
| 28 nM | 1 nM | 3800 nM | 11000 nM | – | 48 nM | – | – | Cc1nc(C)c(-c2ccnc(Nc3ccc(S(=O)(=O)O)cc3)n2)s1 [Compound 148, 4-[4-(2,4-Dimethyl-thiazol-5-yl)-pyrimidin-2-ylamino]-benzenesulfonic acid] | – |
| 250 nM | 520 nM | 500 nM | 990 nM | 59 nM | 710 nM | – | – | Cc1nc(N)sc1-c1ccnc(Nc2cccc(N)c2)n1 [Compound 149, N-[4-(2-Amino-4-methyl-thiazol-5-yl)-pyrimidin-2-yl]-benzene-1,3-diamine] | – |
| – | – | – | – | – | 370 nM | 93 nM | 86 nM | Cc1c(-c2ccnc(Nc3cccc(O)c3)n2)sc(=O)n1C [Compound 158, 5-[2-(3-Hydroxy-phenylamino)-pyrimidin-4-yl]-3,4-dimethyl-3H-thiazol-2-one] | IC50 [3, 17]: 1000 nM; IC50 [4, 18]: 1300 nM |
| – | – | – | – | – | 820 nM | 78 nM | 260 nM | Cc1c(-c2ccnc(Nc3ccc(F)c([N+](=O)[O-])c3)n2)sc(=O)n1C [Compound 159, 5-[2-(4-Fluoro-3-nitro-phenylamino)-pyrimidin-4-yl]-3,4-dimethyl-3H-thiazol-2-one] | IC50 [4, 18]: 1100 nM |
| – | – | – | – | – | 96 nM | 36000 nM | 84 nM | Cc1ccc(Nc2nccc(-c3sc(=O)n(C)c3C)n2)cc1[N+](=O)[O-] [Compound 163, 3,4-Dimethyl-5-[2-(4-methyl-3-nitro-phenylamino)-pyrimidin-4-yl]-3H-thiazol-2-one] | IC50 [3, 17]: 110 nM; IC50 [4, 18]: 1.2 nM; IC50 [5, 19]: 14 nM |
